Data set [1] has as its target Human cathepsin S (Homo sapiens, UniProt P25774). Put plainly: Cathepsin S assay. Format: biochemical. How it is done:
(§1) Solutions of test compounds in varying concentrations were prepared in 10 μL of dimethyl sulfoxide (DMSO) and then diluted into assay buffer (40 μL, comprising: MES, 50 mM (pH 6.5); EDTA, 2.5 mM; and NaCl, 100 mM); β-mercaptoethanol, 2.5 mM; and BSA, 0.00%. Human cathepsin S (0.05 pMoles in 25 μL of assay buffer) was added to the dilutions. The assay solutions were mixed for 5-10 seconds on a shaker plate, covered and incubated for 30 min at room temperature. Z-Val-Val-Arg-AMC (4 nMoles in 25 μL of assay buffer containing 10% DMSO) was added to the assay solutions and hydrolysis was followed spectrophotometrically (at λ 460 nm) for 5 min. Apparent inhibition constants (Ki) were calculated from the enzyme progress curves using standard mathematical models.

Data set [2] has as its target cathepsin B (Homo sapiens, UniProt P07858). Put plainly: Cathepsin B assay. Format: biochemical. How it is done:
Solutions of test compounds in varying concentrations were prepared in 101 μL of dimethyl sulfoxide (DMSO) and then diluted into assay buffer (40 μL, comprising: N,N-bis(2-hydroxyethyl)-2-aminoethanesulfonic acid (BES), 50 mM (pH 6); polyoxyethylenesorbitan monolaurate, 0.05%; and dithiothreitol (DTT), 2.5 mM). Human cathepsin B (0.025 pMoles in 25 μL of assay buffer) was added to the dilutions. The assay solutions were mixed for 5-10 seconds on a shaker plate, covered and incubated for 30 min at room temperature. Z-FR-AMC (20 nMoles in 25 μL of assay buffer) was added to the assay solutions and hydrolysis was followed spectrophotometrically at (λ 460 nm) for 5 min. Apparent inhibition constants (Ki) were calculated from the enzyme progress curves using standard mathematical models.

Data set [3] has as its target cathepsin L (Homo sapiens, UniProt P07711). Put plainly: Cathepsin L assay. Format: biochemical. As to conditions: for inhibition at 0.1 µM: single data point of 100 nM. How it is done: (§2) Solutions of test compounds in varying concentrations were prepared in 10 μL of dimethyl sulfoxide (DMSO) and then diluted into assay buffer (40 μL, comprising: MES, 50 mM (pH 5.5); EDTA, 2.5 mM; and DTT, 2.5 mM). Human cathepsin L (0.05 pMoles in 25 μL of assay buffer) was added to the dilutions. The assay solutions were mixed for 5-10 seconds on a shaker plate, covered and incubated for 30 min at room temperature. Z-Phe-Arg-AMC (1 nMoles in 25 μL of assay buffer) was added to the assay solutions and hydrolysis was followed spectrophotometrically at (λ 460 nm) for 5 min. Apparent inhibition constants (Ki) were calculated from the enzyme progress curves using standard mathematical models.

Data set [4] has as its target Human Cathepsin V (Homo sapiens, UniProt O60911). Put plainly: Cathepsin V assay. The class given is biochemical. The following applies: for inhibition at 0.1 µM: single data point of 100 nM. How it is done:
The assays were performed similarly to those described above. Human Cathepsin V: The buffer used to assay this enzyme consisted of: 50 mM MES (pH 6.5), 2.5 mM DTT, 2.5 mM EDTA, 100 mM NaCl, 0.01% BSA and 10% DMSO. Recombinant human cathepsin V was supplied at 2.0 nM. Substrate, Z-Phe-Arg-AMC, was supplied at 25 μM. Apparent inhibition constants (Ki) were calculated from the enzyme progress curves using standard mathematical models.

Data set [5] deals with T1, Cathepsin K (huRab), humanized rabbit cathepsin K enzyme (Oryctolagus cuniculus, UniProt P43236).
T1 sequence (P43236 1-329 Y175D/V274L): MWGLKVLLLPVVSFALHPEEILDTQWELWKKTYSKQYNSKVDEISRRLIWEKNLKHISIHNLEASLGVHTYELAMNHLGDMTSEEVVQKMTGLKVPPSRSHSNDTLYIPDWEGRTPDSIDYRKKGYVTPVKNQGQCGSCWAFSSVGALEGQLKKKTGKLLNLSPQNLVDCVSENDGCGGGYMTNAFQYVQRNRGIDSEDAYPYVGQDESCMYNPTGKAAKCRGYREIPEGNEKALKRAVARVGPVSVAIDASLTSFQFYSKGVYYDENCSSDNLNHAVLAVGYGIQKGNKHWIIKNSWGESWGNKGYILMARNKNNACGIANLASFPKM
Put plainly: Cathepsin K (huRab) assay. Format: biochemical. The method, then:
FIG. 5. Cathepsin inhibitory profiles for Compound A, Compound B, and Compound C. All human enzymes with the exception of CatK HuRab. This is a humanized rabbit cathepsin K enzyme where the key amino acids in the active site of rabbit cathepsin K have been converted to match the amino acids found in the active site of human cathepsin K. The remainder of the enzyme is rabbit. Methods are as set forth in the Examples.
as §2, with “K (0.0906” for “L (0.05”, “(4” for “(1”

Data set [6] addresses T2, Human cathepsin F (Homo sapiens, UniProt Q9UBX1).
T2 sequence (Q9UBX1 271-484): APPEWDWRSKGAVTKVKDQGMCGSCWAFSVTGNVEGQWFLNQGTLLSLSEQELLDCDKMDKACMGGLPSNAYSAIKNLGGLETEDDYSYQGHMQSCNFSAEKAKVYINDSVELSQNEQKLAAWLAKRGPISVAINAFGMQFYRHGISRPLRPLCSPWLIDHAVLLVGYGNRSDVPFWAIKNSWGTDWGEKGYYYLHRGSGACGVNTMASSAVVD
Put plainly: Cathepsin F assay. The class given is biochemical. How it is done: as §1, with “DTT,” for “β-mercaptoethanol,”, “0.01%.” for “0.00%.”, “F (0.1” for “S (0.05”, “Z-Phe-Arg-AMC (2” for “Z-Val-Val-Arg-AMC (4”, “Apparent inhibition constants (Ki) were calculated from the enzyme progress curves using standard mathematical models.” left out

Data set [7] concerns human osteoclasts. Put plainly: Inhibition of bone resorption in vitro (human osteoclasts on bovine bone slices). As to conditions: CTX/TRACP5b, FIG. 7. The class given is cell-based. The method, then:
FIG. 7. Inhibition of Bone Resorption In Vitro. […] Compounds of the present invention were added to cultured human differentiated bone marrow-derived osteoclasts cultured on bovine bone slices allowing them to resorb bone. Tartrate-resistant acid phosphatase 5b activity (TRACP 5b) was measured in the culture medium as an index of the number of osteoclasts formed in each well, and C-terminal cross-linked telopeptides of type 1 collagen (CTX) was measured in the culture medium to quantitate bone resorption. […] The irreversible protease inhibitor E64 as well as the reversible specific cathepsin K protease inhibitor odanacatib were included as assay controls.
Compound A was assessed in an in vitro assay for its efficacy in blocking resorption activity of human osteoclasts in vitro. Bone marrow-derived human osteoclast precursor cells were cultured on bovine bone slices for 7 days in conditions that allowed osteoclast differentiation, and allowing them to differentiate into bone-resorbing osteoclasts. After completion of osteoclast differentiation at day 7, the culture medium was removed and new culture medium for assessing osteoclast activity was added. Test compounds including Compound A was added to the cultures at this stage on day 7. Cultures were then allowed to continue for an additional 3 days allowing them to resorb bone. Concentrations of Compound assessed were 1, 3, 10, 30, 100, 300, and 1000 nM in 8 replicates. Tartrate-resistant acid phosphatase 5b activity (TRACP 5b) was measured from the culture medium collected on day 7 indicating the number of mature osteoclasts formed in each well before adding compounds. C-terminal cross-linked telopeptides of type 1 collagen (CTX) were measured form the culture medium collected at day 10 to quantitate bone resorption during days 7-10. […] The study was performed in […] with each containing a baseline group including vehicle, a control group with a reference compound E64, and 7 concentrations of the test compound to determine an EC50 for inhibition of resorption activity.

Data set [8] has as its system multiple human cathepsin enzymes. Put plainly: Cathepsin inhibitory profile on multiple cathepsin enzymes. The class given is biochemical. From the text: FIG. 1. […] Methods are similar to those set forth in the Biological Examples.
The mark [9] stands for this setting: tested at one concentration, 100 nM.

Molecules are shown by their SMILES. Read-outs that look alike come from different tables or passages of the source.

Sequence of Human Cathepsin V (O60911 114-334): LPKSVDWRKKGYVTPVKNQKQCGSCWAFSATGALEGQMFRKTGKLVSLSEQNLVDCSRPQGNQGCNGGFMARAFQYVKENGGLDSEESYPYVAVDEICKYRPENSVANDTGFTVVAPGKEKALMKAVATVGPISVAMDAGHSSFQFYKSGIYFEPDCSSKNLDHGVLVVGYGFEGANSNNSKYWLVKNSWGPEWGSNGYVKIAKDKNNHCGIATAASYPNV
Sequence of Human cathepsin S (P25774 115-331): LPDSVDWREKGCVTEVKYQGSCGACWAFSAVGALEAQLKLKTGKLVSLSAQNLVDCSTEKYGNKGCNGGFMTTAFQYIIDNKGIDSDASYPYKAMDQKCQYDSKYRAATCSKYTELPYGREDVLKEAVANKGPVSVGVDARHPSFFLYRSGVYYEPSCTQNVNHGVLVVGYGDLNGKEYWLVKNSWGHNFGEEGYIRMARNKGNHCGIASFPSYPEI
Sequence of cathepsin L (P07711 114-333): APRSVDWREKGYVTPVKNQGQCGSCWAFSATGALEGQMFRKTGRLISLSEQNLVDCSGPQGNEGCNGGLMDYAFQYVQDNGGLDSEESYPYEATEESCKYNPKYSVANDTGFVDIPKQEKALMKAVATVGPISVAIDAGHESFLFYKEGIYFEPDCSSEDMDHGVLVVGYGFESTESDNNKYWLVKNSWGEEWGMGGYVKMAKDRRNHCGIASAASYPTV

As to `CC[C@H](NC(=O)[C@H](CS(=O)(=O)Cc1cccnc1)N[C@@H](c1ccc(F)cc1)C(F)(F)F)C(=O)C(=O)NC1CC1` [Compound F, (S)—N-cyclopropyl-2-oxo-3-((R)-3-((pyridin-3-ylmethyl)sulfonyl)-2-(((S)-2,2,2-trifluoro-1-(4-fluorophenyl)ethyl)amino)propanamido)pentanamide], the IC50 (as a rule, the concentration that inhibits the measured activity by half) in data set [1] is 0.34 nM; in [2], 2.5 nM; in data set [3], 0.3 nM; in [4] it was less than 0.25 nM; in data set [5], 28 nM; in data set [6], 74 nM. The “inhibition of bone resorption in vitro” value in [7] is on record as “inhibit bone resorption in vitro, with similar potency to Compound A”.
As to `CC[C@H](NC(=O)[C@H](CC(F)(F)CC1CC1)N[C@@H](c1ccc(F)cc1)C(F)(F)F)C(=O)C(=O)NC1CC1` [Compound E, (S)-5-cyclopropyl-N—((S)-1-(cyclopropylamino)-1,2-dioxopentan-3-yl)-4,4-difluoro-2-(((S)-2,2,2-trifluoro-1-(4-fluorophenyl)ethyl)amino)pentanamide], the IC50 in data set [1] is 0.332 nM; in data set [2], less than 100 nM; in data set [3] (setting [9]) it was less than 100 nM; in [4] (setting [9]), less than 100 nM. For the same compound, the inhibition (usually how much of the control response was suppressed) at 0.1 µM in [2] (one concentration, 100 nM) was not below 98%; in [3] it was not below 98%; in data set [4], not below 98%. Also, in [7], the “inhibition of bone resorption in vitro” value was “inhibit bone resorption in vitro, with similar potency to Compound A”.
With `CC[C@H](NC(=O)[C@H](CS(=O)(=O)c1cccc(S(C)(=O)=O)c1)N[C@@H](c1ccc(F)cc1)C(F)(F)F)C(=O)C(=O)NC1CC1` [Compound B, (S)—N-Cyclopropyl-3-((R)-3-((3-(methylsulfonyl)phenyl)sulfonyl)-2-(((S)-2,2,2-trifluoro-1-(4-fluorophenyl)ethyl)amino)propanamido)-2-oxopentanamide], in data set [7], the “inhibition of bone resorption in vitro” value was “inhibit bone resorption in vitro, with similar potency to Compound A”.
For the compound `CC[C@H](NC(=O)[C@H](CC(F)(F)CC1CC1)NCC(F)(F)Oc1ccc(F)cc1)C(=O)C(=O)NC1CC1` [Compound D, (S)-5-cyclopropyl-N-((S)-1-(cyclopropylamino)-1,2-dioxopentan-3-yl)-2-(2,2-difluoro-2-(4-fluorophenoxy)ethylamino)-4,4-difluoropentanamide], the IC50 in [1] is 0.267 nM; in data set [2], 23 nM; in data set [3] (setting [9]) it was less than 100 nM; in [4] (setting [9]) it was less than 100 nM. Also, the inhibition at 0.1 µM in data set [3] came to 75%; in [4] it was 63%. For the same compound, the “inhibition of bone resorption in vitro” value in data set [7] is given as “inhibit bone resorption in vitro, with similar potency to Compound A”. Further, the “cathepsin inhibitory profile on multiple cathepsin enzymes” value in data set [8] is listed as “very favorable cathepsin inhibitory profile”.
Turning to `CC[C@H](NC(=O)[C@H](CCS(C)(=O)=O)N[C@@H](c1ccc(F)cc1)C(F)(F)F)C(=O)C(=O)NC1CC1` [Example 1, N-cyclopropyl-3S-{4-methanesulfonyl-2S-[2,2,2-trifluoro-1S-(4-fluoro-phenyl)-ethylamino]-butyrylamino}-2-oxo-pentanamide], the melting point (usually the temperature of the solid-liquid transition) fell in the range of 152.5 to 153.5 °C.

The values are drawn from patent publication US8680152B2, “Cathepsin inhibitors for the treatment of bone cancer and bone cancer pain” (Virobay, Inc., priority 2011, dated 2014).
